Earlier results in patent publication US20260200930A1, “PRODRUGS OF TEMOZOLOMIDE TO FACILITATE DELIVERY INTO BRAIN TUMORS” (H. LEE MOFFITT CANCER CENTER AND RESEARCH INSTITUTE, INC., priority 2022, published 2026).

Key:
[1] = oral chemotherapy; % of the highest plasma concentration

In the case of `Cn1nnc2c(C(N)=O)ncn2c1=O` [TMZ, temozolomide], the “brain concentration relative to highest plasma concentration that can safely be obtained” value [1] is given as “about 40%” and the solubility in water is given as “insoluble in water”.
